Read-outs that look alike come from different tables or passages of the source.
Experiments:
[1] = system: EPO-induced JAK2 signal pathway; experiment: EPO-induced proliferation of UT-7 cells (JAK2 signal); assay type: cell-based, human; conditions: Homo sapiens, UT7; UT-7 cell proliferation, EPO 10 ng/mL, 72 hours; read-out: Inhibition activity IC50 on EPO-induced JAK2 signal pathway
Experimental: The cytokine EPO, i.e. erythropoietin, can promote the proliferation and division of erythroid progenitor cells, and the signal pathway induced by EPO coupling with its receptor is mediated by JAK2-STAT5.
Human promegakaryocytic leukemia cell line UT-7 was commercially available from Cell Resource Center, Institute of Basic Medicine, Chinese Academy of Medical Sciences. The culture medium was RPIM1640 containing 10% FBS, and EPO was added for a final concentration of 10 ng/mL.
The inhibition rate of the tested compound on EPO-induced cell proliferation was calculated using Microsoft Excel.
UT-7 cell line was inoculated in 96-well plate with flat bottom at 15000 cells per well, each well was added with 10 ng/mL of human recombinant EPO (Human EPO PEPROTECH 100-64-10UG), along with tested compound respectively for a final concentration of 0, 100, 1000 or 10000 nM. After culture at 37° C. and 5% CO2 for 72 hours, alamarBlue™ Cell Viability Reagent was added to each well following the instructions. After incubation at 37° C. for color reaction, the fluorescence value at Ex530/Em590 was detected using Tecan Spark™ 10M multimode microplate reader.
(§1) The well in which neither compound nor cytokine was added was designated as 00 control well, and the fluorescence value in the wells in which the final concentration of compound was 0 was designated as 100 control. The inhibition activity MC50 ofthe tested compound on JAK2 could be calculated from the inhibition rate ofthe tested compound on EPO-induced cell proliferation at different doses.

[2] = system: IL-2-induced JAK1/JAK3 signal pathway; experiment: IL-2-induced proliferation of KHYG-1 cells (JAK1/JAK3 signal); assay type: cell-based, human; conditions: Homo sapiens, read-out: Inhibition activity IC50 on IL-2-induced JAK1/JAK3 signal pathway
Excerpt: The main physiological function of cytokine IL-2 is to stimulate and maintain the proliferation and differentiation of T cells. Generally, IL-2 dependent T cells cannot survive in in-vitro culture for a long time, but the addition of IL-2 can make them continue to proliferate. The signal pathway induced by IL-2 coupling with its receptor is mediated by JAK1/JAK3-STAT5, so the inhibitor of JAK1 and/or JAK3 can inhibit the proliferation of IL-2 dependent cells.
Human natural killer cell lymphoma cell line KHYG-1 was commercially available from Health Science Research Resources Bank (HSRRB), and relevant culture conditions referred to those from HSRRB.
The inhibition rate of the tested compound on IL-2-induced cell proliferation was calculated using Microsoft Excel.
After culture at 37° C. and 5% CO2 for 72 hours, alamarBlue™ Cell Viability Reagent was added to each well following the instructions.
as §1, with “0%” for “00”, “100%” for “100”, “[…] of the” for “MC50 ofthe”, “JAK1/JAK3” for “JAK2”, “of the” for “ofthe”, “IL-2-induced” for “EPO-induced”

[3] = KHYG-1 cell proliferation, IL-2 10 ng/mL, 72 hours

Compound	IC50 [1]	IC50 [2, 3]	IC50 ([2]; KHYG-1, 72 h)
N#CC[C@H](C1CCCC1)n1cc(-c2ncnc3[nH]ccc23)cn1 [ruxolitinib, reference compound]	< 0.1 µM	–	–
CONC(=O)c1nnc(NC(=O)C2CC2)cc1Nc1cccc(-c2ncn(C)n2)c1OC [Example 52, 6-(cyclopropylcarboxamido)-N-methoxy-4-((2-methoxy-3-(1-methyl-1H-1,2,4-triazol-3-yl)phenyl)amino)pyridazine-3-carboxamide]	> 10 µM	> 10 µM	–
CONC(=O)c1cnc(NC(=O)C2CC2)cc1Nc1cccc(C(F)(F)F)c1N(C)S(C)(=O)=O [Example 82, 6-(cyclopropylcarboxamido)-N-methoxy-4-((2-(N-methylmethanesulfonamido)-3-(trifluoromethyl)phenyl)amino)nicotinamide]	> 10 µM	> 10 µM	–
CONC(=O)c1cnc(NC(=O)C2CC2)cc1Nc1cccc(-c2cnn(C)c2)c1N(C)S(C)(=O)=O [Example 87, 6-(cyclopropylcarboxamido)-N-methoxy-4-((3-(1-methyl-1H-pyrazol-4-yl)-2-(N-methylmethanesulfonamido)phenyl)amino)nicotinamide]	> 10 µM	> 10 µM	–
C#Cc1ccc(Nc2cc(Nc3nc(C)cc(C)n3)ncc2C(=O)NOCC)c(N(C)S(C)(=O)=O)c1 [Example 164, 6-((4,6-dimethylpyrimidin-2-yl)amino)-N-ethoxy-4-((4-ethynyl-2-(N-methylmethanesulfonamido)phenyl)amino)nicotinamide]	> 10 µM	> 10 µM	–
CONC(=O)c1cnc(NC(=O)C2CC2)cc1Nc1ccccc1OC1COC1 [Example 39, 6-(cyclopropylcarboxamido)-N-methoxy-4-((2-(oxetan-3-yloxy)phenyl)amino)nicotinamide]	> 10 µM	–	> 10 µM
CONC(=O)c1cnc(NC(=O)C2CC2)cc1Nc1ccccc1S(=O)(=O)N(C)C [Example 34, 6-(cyclopropylcarboxamido)-4-((2-(N,N-dimethylaminosulfonyl)phenyl)amino)-N-methoxy nicotinamide]	> 10 µM	> 10 µM	–
CONC(=O)c1cnc(NC(=O)C2CC2)cc1Nc1cccc(-c2noc(C)n2)c1OC [Example 55, 6-(cyclopropylcarboxamido)-N-methoxy-4-((2-methoxy-3-(5-methyl-1,2,4-oxadiazol-3-yl)phenyl)amino)nicotinamide]	> 10 µM	> 10 µM	–
CN(c1ccccc1Nc1cc(NC(=O)C2CC2)ncc1C(=O)NOC(C)(C)C)S(C)(=O)=O [Example 91, N-(t-butoxy)-6-(cyclopropylcarboxamido)-4-((2-(N-methylmethanesulfonamido)phenyl)amino)nicotinamide]	> 10 µM	> 10 µM	–
CCONC(=O)c1cnc(Nc2nccs2)cc1Nc1ccc(C2CC2)cc1N(C)S(C)(=O)=O [Example 158, 4-((4-cyclopropyl-2-(N-methylmethanesulfonamido)phenyl)amino)-N-ethoxy-6-(thiazol-2-ylamino)nicotinamide]	> 10 µM	> 10 µM	–
CCNC(=O)c1cnc(NC(=O)C2CC2)cc1Nc1cccc(-c2cnn(C)c2)c1OC [Example 71, 6-(cyclopropylcarboxamido)-N-ethyl-4-((2-methoxy-3-(1-methyl-1H-pyrazol-4-yl)phenyl)amino)nicotinamide]	> 10 µM	> 10 µM	–
CCONC(=O)c1nnc(Nc2cc(C)nc(C)n2)cc1Nc1cccc(-c2ncc(C)cn2)c1OC [Example 276, 6-((2,6-dimethylpyrimidin-4-yl)amino)-N-ethoxy-4-((2-methoxy-3-(5-methylpyrimidin-2-yl)phenyl)amino)pyridazine-3-carboxamide]	> 10 µM	> 10 µM	–
CONC(=O)c1cnc(Nc2ccc(S(C)(=O)=O)cc2)cc1Nc1cccc(-c2cnn(C)c2)c1OC [Example 72, N-methoxy-4-((2-methoxy-3-(1-methyl-1H-pyrazol-4-yl)phenyl)amino)-6-((4-(methanesulfonyl)phenyl)amino)nicotinamide]	> 10 µM	> 10 µM	–

— patent US20240101548A1, “HYDROXAMATE COMPOUND, PREPARATION METHOD THEREFOR AND APPLICATION THEREOF” (SHENZHEN CHIPSCREEN BIOSCIENCES CO., LTD., priority 2020, published 2024)
